One series can be described thus: circular dichroism. The settings on record: 10 mM phosphate; pH 7.5; 25 °C; 50 uM.
For series [1], the system named is 5HB, a recombinant protein containing 3 HR1 domains covalently attached to 2 HR2 domains. As to conditions: Ala-scan variants, FP. The text has this:
The RSV HR2 region (residues 476 to 524) is a 49-amino-acid sequence that has been extensively characterized (Fig. 1). HR2 is a largely unstructured peptide in aqueous solution folding into an α-helix upon binding to trimeric HR1 coiled coils ([20]). […] We reduced HR2 (aa 483 to 516) into three short overlapping subdomains (subdomains 1 to 3) (Fig. 1). These peptides were scanned for various stapling combinations. […] Far-UV circular dichroism (CD) spectropolarimetry was used to investigate the effect of stapling on the α-helical content of the peptides. […] To assess the propensity of the stapled peptides to hinder the formation of the postfusion six-helix bundle required for viral cell entry, we used a 5-helix bundle (5HB) biochemical fluorescence polarization (FP) competition assay as previously described ([21], [22]).
The coding sequence of 5HB was designed as described previously and de novo synthesized by Genscript ([21]). The HR1 (aa 126 to 182) and HR2 (aa 476 to 524) coding sequences from wild-type RSV A2 strain F ([36]) were codon optimized for overexpression in Escherichia coli and cloned at NdeI/BamHI restriction sites of pET-15b to generate the expression plasmid for 5HB. The 5HB expression construct was transformed into Escherichia coli BL21(DE3). Cells were grown at 37°C to an optical density at 600 nm of 0.8 followed by induction with isopropyl-1-thio-β-D-galactopyranoside at a final concentration of 0.5 mM for 12 to 15 h. Cells were harvested by centrifugation, washed twice with PBS, and resuspended in 20 ml of PBS (pH 7.4), 500 mM NaCl, and 1% Triton X-100 supplemented with complete protease inhibitor. Cell suspensions were disrupted by sonication. Cell debris was removed through ultracentrifugation at 18,000 × g for 1 h at 4°C, and clarified cell lysate was mixed with 1 ml of nickel-nitrilotriacetic acid (Ni-NTA) agarose beads (Qiagen) preequilibrated with 20 ml of lysis buffer. The suspension was agitated for 1 h at 4°C and loaded onto a 5-ml polypropylene column (Qiagen). The column was washed twice with 8 ml of PBS (pH 7.4), 500 mM NaCl, 1% Triton X-100, and 100 mM imidazole. Proteins were eluted with 5 × 500 μl of a buffer containing PBS (pH 7.4), 300 mM imidazole, and 500 mM NaCl. The imidazole was removed by dialysis, and protein purity was assessed by SDS-polyacrylamide gel electrophoresis followed by Coomassie blue staining. Protein concentration was determined with the Qubit 2.0 Fluorometer (Life Technologies).
The T108 ([12]) peptide probe was synthesized by standard SPPS procedures using HCTU as a coupling reagent as described above. A 10-μl volume of recombinant 5HB protein in FP buffer (20 mM PBS [pH 7.4], 500 mM NaCl, 0.01% [vol/vol] Tween 20, and 0.05 mg/ml bovine gamma globulin) was preincubated for 10 min at room temperature with 10 μl of the appropriate concentration of the inhibitor, after which 10 μl of fluorescein isothiocyanate (FITC)-T106 was added and further incubated for 30 min at room temperature. The final concentrations of protein and probe were 50 nM and 2 nM, respectively. The fluorescence polarization assay was performed in 384-well plates using a Spectramax Paradigm (Molecular Devices), using excitation and emission wavelengths of 485 nm and 535 nm, respectively. The acquisition time was 700 ms, and the read height was 1 mm. All experiments were performed in duplicate. […] In order to ensure robust fitting for some fits, r0 was kept constant at the value measured for the free tracer in buffer.

For series [2], the system named is rHRSV-mCherry in HEp-2 cells. As to the kind of experiment: rHRSV-mCherry inhibition assay. As to conditions: Table 3 (Ala scan); HEp-2 cells, rHRSV-mCherry MOI 0.2, 2-fold serial dilutions (11 dilutions), duplicate; ± SD of fit. The series is classed as cell-based, human respiratory syncytial virus. How it is done:
To measure the inhibitory activity of the peptide, the mCherry red fluorescence was quantified 48 h postinfection (p.i.).
Viral replication was quantified by measuring the mCherry fluorescence at 48 h p.i. and normalized based on the fluorescence of infected and untreated cells. (B) Cytotoxicity assay. HEp-2 cells were incubated in the presence of serial dilutions of peptides, and cell survival was quantified using the CellTiter-Glo Luminescent cell viability assay 24 h after the addition of the peptides. The signal was normalized based on the luminescence obtained for untreated cells. Error bars are standard deviations from duplicates.
HEp-2 cells were seeded at 5 × 10^4 cells per well in a 96-well plate the day before the infection. Peptides were 2-fold serially diluted in dimethyl sulfoxide (DMSO) (11 dilutions) and then further diluted in EMEM without phenol red and preincubated for 15 to 20 min with rHRSV-mCherry ([24]) at a final dilution with an MOI of 0.2 ([24]). The cells were incubated with the virus-peptide mixtures for a period of 1.5 to 2 h. The medium was then replaced by EMEM without phenol red containing 2% fetal bovine serum and the same concentration of peptide as the one that was used during the infection step. Plates were incubated 48 h at 37°C, and the mCherry fluorescence was measured using a spectrofluorometer (Tecan infinite M200PRO) with excitation and emission wavelengths of 580 and 620 nm, respectively. Relative fluorescence was normalized by the fluorescence of nontreated infected cells. Noninfected HEp-2 cells were used as standards for fluorescence background levels. Each experiment was performed in duplicate and repeated at least twice. The resulting inhibition curves were fitted in Igor Pro as described above.

In series [3] the test system is recombinant GFP-expressing RSV (strain A2) in A549 cells. The series is classed as cell-based, human respiratory syncytial virus. As to conditions: A549 cells, eGFP RSV, GFP-positive cells by FACS 24 h p.i. How it is done: A549 cells were infected with a recombinant green fluorescent protein (GFP)-expressing RSV (strain A2) ([23]), and the inhibitory activity of the peptide was quantified by flow cytometry.
Each peptide was diluted 3 times by 2-fold serial dilutions. eGFP RSV virus at an MOI of 0.5 was used for the infection, and GFP-positive cells were counted by FACS analysis 24 h p.i. The GFP data were normalized to the fluorescence values observed with virus only and plotted as percent inhibition.
Serial 4-fold dilutions of inhibitors were mixed with eGFP-encoding RSV virus ([23]) with a volume of virus required to achieve approximately 50% of infection in medium containing 2% fetal calf serum. The resulting mixture was added to 24-well plates containing A549 cells. Cells were incubated for 2 h at 37°C, the medium was replaced, and cells were incubated for an additional 24 h. Cells were treated with 300 μl of trypsin for 10 min at 37°C, and the detached cells were diluted in 1 ml of culture medium. Following centrifugation at 1,700 rpm, the pellet was resuspended in 300 μl of PBS–1% fetal bovine serum (FBS) (vol/vol) and GFP-positive cells were counted by fluorescence-activated cell sorter (FACS) analysis. The GFP data were normalized to the fluorescence value observed with virus only. The resulting inhibition curves were fitted in Igor Pro as described above.
Background: In flow cytometry, cells or beads pass a laser one at a time.

Bridge positions count the residues as written; N and C are the ends. Square brackets hold non-standard residues; d marks the D form. Peptide text beside a SMILES is read from it. S5 = C=CCCC[C@](C)(N)C(=O)O

In general, EC50 refers to the concentration needed to bring the measured effect to its halfway point. The low end stands for greater potency, the high end for weaker potency.

Compound `CC[C@H](C)[C@H](NC(=O)[C@H](CCCCN)NC(=O)[C@H](CCC(=O)O)NC(C)=O)C(=O)N[C@@]1(C)CCCC=CCCC[C@@](C)(C(=O)N[C@@H](Cc2ccccc2)C(=O)N[C@@H](C)C(=O)N[C@@]2(C)CCCC=CCCC[C@@](C)(C(=O)N[C@@H](CC(C)C)C(=O)N[C@@H](CC(C)C)C(=O)N[C@@H](Cc3c[nH]cn3)C(=O)N[C@@H](CC(N)=O)C(=O)N[C@H](C(N)=O)C(C)C)NC(=O)[C@H](CC(=O)O)NC(=O)[C@H](CO)NC(=O)[C@H](CCCCN)NC2=O)NC(=O)[C@H](CC(C)C)NC(=O)[C@H](CO)NC(=O)[C@H](CCC(N)=O)NC1=O` [Peptide I506A] (Ac-EKI[S5]QSL[S5]FA[S5]KSD[S5]LLHNV-NH2; staple 4-8, 11-15) gave a helicity in “circular dichroism” of 22%. Moreover, in series [1], the “competition with binding of fluorescently labeled T108 to recombinant 5HB (in words)” value (shortened to “competition with binding”) is “none of these variants were able to compete”. The compound also yielded an EC50 in series [2] of 10.4 ± 2.97 µM.
`CC[C@H](C)[C@H](NC(=O)[C@H](Cc1ccccc1)NC(=O)[C@]1(C)CCCC=CCCC[C@](C)(NC(=O)[C@@H](NC(=O)[C@H](CCCCN)NC(=O)[C@H](CCC(=O)O)NC(C)=O)[C@@H](C)CC)C(=O)N[C@@H](CCC(N)=O)C(=O)N[C@@H](CO)C(=O)N[C@@H](CC(C)C)C(=O)N1)C(=O)N[C@@]1(C)CCCC=CCCC[C@@](C)(C(=O)N[C@@H](CC(C)C)C(=O)N[C@@H](CC(C)C)C(=O)N[C@@H](Cc2c[nH]cn2)C(=O)N[C@@H](CC(N)=O)C(=O)N[C@H](C(N)=O)C(C)C)NC(=O)[C@H](CC(=O)O)NC(=O)[C@H](CO)NC(=O)[C@H](C)NC1=O` [Peptide K508A] (Ac-EKI[S5]QSL[S5]FI[S5]ASD[S5]LLHNV-NH2; staple 4-8, 11-15) returned a helicity in “circular dichroism” of 76%. For the same compound, the “competition with binding” value in series [1] is “none of these variants were able to compete”. For the same compound, in series [2], a half-maximal response (EC50) required 10.9 ± 13.9 µM.
For `CC[C@H](C)[C@@H]1NC(=O)[C@H](Cc2ccccc2)NC(=O)[C@@](C)(NC(=O)[C@H](CC(C)C)NC(=O)[C@H](CO)NC(=O)[C@H](CCC(N)=O)NC(=O)[C@H](CC(N)=O)NC(=O)[C@@H](NC(=O)[C@H](CCCCN)NC(=O)[C@H](CCC(=O)O)NC(C)=O)[C@@H](C)CC)CCCC=CCCC[C@@](C)(C(=O)N[C@@H](CO)C(=O)N[C@@H](CC(=O)O)C(=O)N[C@@]2(C)CCCC=CCCC[C@@](C)(C(=O)N[C@H](C(N)=O)C(C)C)NC(=O)[C@H](Cc3c[nH]cn3)NC(=O)[C@H](CC(C)C)NC(=O)[C@H](CC(C)C)NC2=O)NC(=O)[C@H](C)NC1=O` [Peptide R507A] (Ac-EKINQSL[S5]FIA[S5]SD[S5]LLH[S5]V-NH2; staple 8-12, 15-19) the same measures were 45%, “none of these variants were able to compete” and 175 µM.
As to `CC[C@H](C)[C@H](NC(=O)[C@H](Cc1ccccc1)NC(=O)[C@]1(C)CCCC=CCCC[C@](C)(NC(=O)[C@@H](NC(=O)[C@H](CCCCN)NC(=O)[C@H](CCC(=O)O)NC(C)=O)[C@@H](C)CC)C(=O)N[C@@H](CCC(N)=O)C(=O)N[C@@H](CO)C(=O)N[C@@H](CC(C)C)C(=O)N1)C(=O)N[C@@]1(C)CCCC=CCCC[C@@](C)(C(=O)N[C@@H](CC(C)C)C(=O)N[C@@H](CC(C)C)C(=O)N[C@@H](Cc2c[nH]cn2)C(=O)N[C@@H](CC(N)=O)C(=O)N[C@H](C(N)=O)C(C)C)NC(=O)[C@H](CC(=O)O)NC(=O)[C@H](C)NC(=O)[C@H](CCCCN)NC1=O` [Peptide S509A] (Ac-EKI[S5]QSL[S5]FI[S5]KAD[S5]LLHNV-NH2; staple 4-8, 11-15), the helicity in the series “circular dichroism” amounted to 62%. Also, in series [1], the “competition with binding” value is reported as “none of these variants were able to compete”. Also, the response in series [2] was half-maximal at 82 ± 1.56 µM (EC50).
As for `CC[C@H](C)[C@@H]1NC(=O)[C@H](CO)NC(=O)[C@](C)(NC(=O)[C@H](CC(=O)O)NC(=O)[C@H](Cc2ccccc2)NC(C)=O)CCCCCCC=CCCC[C@@](C)(C(=O)N[C@@H](CCCCN)C(=O)N[C@H](C(=O)N[C@@H](CC(N)=O)C(=O)N[C@@H](CCC(N)=O)C(=O)N[C@@H](CO)C(=O)N[C@@H](CC(C)C)C(=O)N[C@@H](C)C(=O)N[C@@H](Cc2ccccc2)C(=O)N[C@H](C(=O)N[C@]2(C)CCCCCCC=CCCC[C@@](C)(C(=O)N[C@@H](CC(N)=O)C(=O)N[C@H](C(=O)N[C@@H](CC(N)=O)C(=O)N[C@@H](C)C(=O)NCC(=O)N[C@@H](CCCCN)C(=O)N[C@@H](CO)C(=O)N[C@H](C(N)=O)[C@@H](C)O)C(C)C)NC(=O)[C@H](CC(C)C)NC(=O)[C@H](CC(C)C)NC(=O)[C@H](CCC(=O)O)NC(=O)[C@H](CC(=O)O)NC(=O)[C@H](CO)NC(=O)[C@H](CCCCN)NC2=O)[C@@H](C)CC)[C@@H](C)CC)NC(=O)[C@H](CC(N)=O)NC(=O)[C@H](C(C)C)NC(=O)[C@H](CCC(N)=O)NC(=O)[C@H](CO)NC1=O` [RSV-SAHBD (Z), reference compound], the “inhibition of RSV-eGFP infection (in words)” value in series [3] was “potency similar to that of peptides 4bb and 4ca”.

Values taken from publication PMC5365662, “A Short Double-Stapled Peptide Inhibits Respiratory Syncytial Virus Entry and Spreading” (Antimicrobial Agents and Chemotherapy, 2017).
